pIC50: −log10 of the molar value. Read-outs that look alike come from different tables or passages of the source.
Target: T1, GRK2 (Homo sapiens, UniProt P25098)
T1 sequence (P25098 1-689): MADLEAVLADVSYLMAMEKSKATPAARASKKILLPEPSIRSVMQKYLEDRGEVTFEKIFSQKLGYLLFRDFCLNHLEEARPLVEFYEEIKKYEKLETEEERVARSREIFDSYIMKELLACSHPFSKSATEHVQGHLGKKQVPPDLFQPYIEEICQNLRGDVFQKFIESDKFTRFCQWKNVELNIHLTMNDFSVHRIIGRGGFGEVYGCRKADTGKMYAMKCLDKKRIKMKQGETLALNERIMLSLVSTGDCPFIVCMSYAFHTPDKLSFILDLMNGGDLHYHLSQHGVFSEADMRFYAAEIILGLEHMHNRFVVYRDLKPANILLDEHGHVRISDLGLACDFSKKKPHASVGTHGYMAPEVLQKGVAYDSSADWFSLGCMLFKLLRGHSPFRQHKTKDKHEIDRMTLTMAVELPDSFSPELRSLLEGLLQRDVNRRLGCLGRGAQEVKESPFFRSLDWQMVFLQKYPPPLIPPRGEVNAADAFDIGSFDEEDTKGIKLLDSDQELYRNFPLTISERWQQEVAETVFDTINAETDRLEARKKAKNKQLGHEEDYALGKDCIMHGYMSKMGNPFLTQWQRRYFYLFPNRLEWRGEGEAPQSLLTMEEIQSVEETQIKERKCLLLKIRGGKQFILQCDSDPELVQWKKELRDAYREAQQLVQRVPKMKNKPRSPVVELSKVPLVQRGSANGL
Assay: hGRK2 LANCE Ultra In Vitro Assay
Assay type: biochemical
Details: for IC50: Biological Example 1 GRK2 Lancer IC50 (μM), 10 nM GRK2, 30 or 600 μM ATP (not stated which), multiple measurements listed individually
Description: hGRK2 LANCE Ultra In Vitro Assay
G-protein coupled receptor kinases (GR Kinases) desensitize activated G-protein coupled receptors (GPCRs), by phosphorylation of cytoplasmic loops or carboxyl-terminal tails of GPCRs. GRK2 is one of the 6 different GR kinases and is implicated in heart failure and diabetes.
This assay is sensitive and requires as low as 10 nM enzyme, in a total volume of 10 μL. In addition, the ATP concentration can be varied over a broad range, without interfering with the assay or changing the assay condition. […] Testing inhibitors routinely at both high and low ATP concentrations also enables identification of potential non-ATP competitive inhibitors.
Paroxetine was used as the reference compound in this assay.
Test compounds were dissolved in DMSO at 1 mM and were 3-fold serial diluted. The compound DMSO solutions were then added (100 nL) into a plate well using an acoustic dispenser. To each well was then added 20 nM GRK2 (5 μL) in assay buffer (20 mM HEPES, pH 7.5, 10 mM MgCl2, 0.001% Tween-20®). The plate was sealed and centrifuged at 1000 rpm for 1 min. The plate and wells containing a mixture of GRK2 and test compound were incubated at ambient temperature for 30 min (prior to initializing the enzymatic reaction).
Enzyme reactions were initiated by the addition of 4.9 μL Substrates/Eu-Ab mix to each well. […] Final concentrations of reagents in the assays were as follows: 20 mM HEPES, pH 7.5; 10 mM MgCl2; 0.001% Tween-20® (w/v); 30 or 600 μM ATP; 200 nM ULight-peptide; 4 nM Eu-Ab; 10 nM GRK2; and 1% DMSO.
The plates were sealed and centrifuged at 1000 rpm for 1 min. For reactions at low ATP concentration (30 μM), reaction mixtures were incubated at ambient temperature for 120 min. For reactions at high ATP concentration (600 μM), reaction mixtures were incubated at ambient temperature for 60 min.
The enzyme reactions were quenched by addition of 10 μL of 12 mM EDTA in 1× LANCE detection solution to each well. The plates were then incubated at ambient temperature for 30 min. Time-resolved fluorescence signal of reactions were read on an EnVision or PHERAstar plate reader with the following parameters: Excitation wavelength=337 nm; emission wavelength (donor)=620 nm; emission wavelength (acceptor)=665 nm.
The raw HTRF data were converted to % active as follows:
% active=(sample−NC)/(PC−NC)*100
where NC is the mean of negative control (reactions without GRK2), and PC is the mean of positive control (reactions with GRK2 but without inhibitor). IC50 values were determined from a 4-parameter fit, using the following equation:
Y=Bottom+(Top−Bottom)/(1+10^((Log IC50−X)*Hill slope))
where X=log10 of the compound concentration.

SMILES: CCOc1cccc(CN2C(=O)c3cc(-n4cn[nH]c4=O)ccc3C2(C)C)c1 [Compound 45, 2-(3-ethoxybenzyl)-3,3-dimethyl-6-(5-oxo-1,5-dihydro-4H-1,2,4-triazol-4-yl)isoindolin-1-one]
- IC50: 1.62 µM

SMILES: CCOc1cccc([C@H](C(=O)OC)N2Cc3ccc(-c4ccncc4)cc3C2=O)c1 [Compound 76]
- IC50: > 20 µM

SMILES: COc1cccc(C(CO)N2Cc3ccc(-c4cccnc4)cc3C2=O)c1 (centres unmarked) [Compound 83, 2-(2-hydroxy-1-(3-methoxyphenyl)ethyl)-6-(pyridin-3-yl)isoindolin-1-one]
- IC50: 0.024 µM

SMILES: COc1cccc(-c2cc(-c3cn[nH]c3)cc3c2CN([C@H](C)c2cccc(OC)c2)C3=O)c1 [Compound 140, (R)-4-(3-methoxyphenyl)-2-(1-(3-methoxyphenyl)ethyl)-6-(1H-pyrazol-4-yl)isoindolin-1-one]
- IC50: 0.265 µM

SMILES: COc1cccc(CN2C(=O)c3cc(-c4cn[nH]c4)ccc3C23CCOCC3)c1 [Compound 82, 2-(3-methoxybenzyl)-5-(1H-pyrazol-4-yl)-2′,3′,5′,6′-tetrahydrospiro[isoindoline-1,4′-pyran]-3-one]
- IC50: 0.007 µM

SMILES: COc1cccc(C(CO)N2Cc3c(cc(-c4cn[nH]c4)cc3-c3ccc(O)cc3)C2=O)c1 (centres unmarked) [Compound 153, 2-(2-Hydroxy-1-(3-methoxyphenyl)ethyl)-4-(4-hydroxyphenyl)-6-(1H-pyrazol-4-yl)isoindolin-1-one]
- IC50: 0.019 µM

SMILES: COc1cccc(C(c2nn[nH]n2)N2Cc3ccc(-c4cn[nH]c4)cc3C2=O)c1 (centres unmarked) [Compound 94, 2-((3-methoxyphenyl)(2H-tetrazol-5-yl)methyl)-6-(1H-pyrazol-4-yl)isoindolin-1-one]
- IC50: 0.652 µM

SMILES: COc1cccc(CN2C(=O)c3cc(-c4cn[nH]c4)ccc3C23CCCC3C(N)=O)c1 (centres unmarked) [Compound 111, 2′-(3-methoxybenzyl)-3′-oxo-5′-(1H-pyrazol-4-yl)spiro[cyclopentane-1,1′-isoindoline]-2-carboxamide]
- IC50: 0.007 µM

SMILES: COc1cccc([C@@H](C)N2Cc3c(cc(-c4cn[nH]c4)cc3-c3ccc(OC)nc3)C2=O)c1 [Compound 127, (R)-2-(1-(3-methoxyphenyl)ethyl)-4-(6-methoxypyridin-3-yl)-6-(1H-pyrazol-4-yl)isoindolin-1-one]
- IC50: 0.047 µM

SMILES: CNC1CCC2(C1)c1ccc(-c3cn[nH]c3)cc1C(=O)N2Cc1cccc(OC)c1 (centres unmarked) [Compound 118, 2′-(3-methoxybenzyl)-3-(methylamino)-5′-(1H-pyrazol-4-yl)spiro[cyclopentane-1,1′-isoindolin]-3′-one]
- IC50: < 0.005 µM

SMILES: COc1cccc(C(CO)N2Cc3c(cc(-c4cn[nH]c4)cc3-c3cccnc3)C2=O)c1 (centres unmarked) [Compound 142, 2-(2-hydroxy-1-(3-methoxyphenyl)ethyl)-6-(1H-pyrazol-4-yl)-4-(pyridin-3-yl)isoindolin-1-one]
- IC50: 0.008 µM

SMILES: COc1cccc([C@@H](C(=O)O)N2Cc3ccc(-c4cn[nH]c4)cc3C2=O)c1 [Compound 169]
- IC50: 0.542 µM

SMILES: COc1cccc(C(C(=O)c2ccccc2)N2Cc3ccc(-c4cn[nH]c4)cc3C2=O)c1 (centres unmarked) [Compound 92, 2-(1-(3-methoxyphenyl)-2-oxo-2-phenylethyl)-6-(1H-pyrazol-4-yl)isoindolin-1-one]
- IC50: 5.01 µM

SMILES: COc1cccc(C(COCC(N)=O)N2Cc3ccc(-c4cn[nH]c4)cc3C2=O)c1 (centres unmarked) [Compound 62, 2-(2-(3-Methoxyphenyl)-2-(1-oxo-6-(1H-pyrazol-4-yl)isoindolin-2-yl)ethoxy)acetamide]
- IC50: 0.007 µM

SMILES: COc1cccc(C(CO)N2Cc3ccc(-c4ccnc(N)n4)cc3C2=O)c1 (centres unmarked) [Compound 64, 6-(2-aminopyrimidin-4-yl)-2-(2-hydroxy-1-(3-methoxyphenyl)ethyl)isoindolin-1-one]
- IC50: 0.047 µM

SMILES: O=C1c2cc(-c3ccncn3)ccc2CN1Cc1cccc(Oc2ccccc2)c1 [Compound 106]
- IC50: 0.419 µM

SMILES: CC(=O)OCC(=O)Oc1cccc(CN2Cc3ccc(-c4cn[nH]c4)cc3C2=O)c1 [Compound 138]
- IC50: 0.002 µM

SMILES: COc1cccc(CN2Cc3ccc(-n4cn[nH]c4=O)cc3C2=O)c1 [Compound 44, 2-(3-methoxybenzyl)-6-(5-oxo-1,5-dihydro-4H-1,2,4-triazol-4-yl)isoindolin-1-one]
- IC50: 0.382 µM

SMILES: COc1cccc(CN2C(=O)c3cc(-c4cn[nH]c4)ccc3C2CC(=O)O)c1 (centres unmarked) [Compound 61, 2-(2-(3-Methoxybenzyl)-3-oxo-5-(1H-pyrazol-4-yl)isoindolin-1-yl)acetic acid]
- IC50: 0.012 µM

SMILES: COC(=O)NC1CCCC12c1ccc(-c3cn[nH]c3)cc1C(=O)N2Cc1cccc(OC)c1 (centres unmarked) [Compound 115, Methyl (2′-(3-methoxybenzyl)-3′-oxo-5′-(1H-pyrazol-4-yl)spiro[cyclopentane-1,1′-isoindolin]-2-yl)carbamate]
- IC50: 0.177 µM

SMILES: COc1cccc(C(C(=O)N(C)C)N2Cc3ccc(-c4cn[nH]c4)cc3C2=O)c1 (centres unmarked) [Compound 168]
- IC50: 0.146 µM

SMILES: O=C(Nc1ccc(F)c(F)c1)c1cccc(CN2Cc3ccc(-c4cn[nH]c4)cc3C2=O)c1 [Compound 34]
- IC50: 0.006 µM

SMILES: O=C1c2cc(-c3cn[nH]c3)ccc2CN1Cc1cccc(-n2cccn2)c1 [Compound 119]
- IC50: 0.113 µM

SMILES: COc1cccc(CN2C(=O)c3cc(-c4cn[nH]c4)ccc3C23CCCC3C(=O)O)c1 (centres unmarked) [Compound 110, 2′-(3-methoxybenzyl)-3′-oxo-5′-(1H-pyrazol-4-yl)spiro[cyclopentane-1,1′-isoindoline]-2-carboxylic acid]
- pIC50: 6.51

SMILES: CCOc1cccc(C(C(=O)O)N2Cc3ccc(-c4ccncc4)cc3C2=O)c1 (centres unmarked) [Compound 77]
- IC50: > 20 µM

SMILES: Cc1cnccc1CNC(=O)c1cccc(CN2C(=O)c3cc(-c4cn[nH]c4)ccc3C23CCCC3)c1 [Compound 134, N-((3-methylpyridin-4-yl)methyl)-3-((3′-oxo-5′-(1H-pyrazol-4-yl)spiro[cyclopentane-1,1′-isoindolin]-2′-yl)methyl)benzamide]
- IC50: 0.003 µM

SMILES: COc1cccc([C@@H](C)N2C(=O)c3cc(-c4cn[nH]c4)ccc3C2CCO)c1 (stereo partly drawn) [Compound 49, 3-(2-hydroxyethyl)-2-((R)-1-(3-methoxyphenyl)ethyl)-6-(1H-pyrazol-4-yl)isoindolin-1-one]
- IC50: < 0.005 µM

SMILES: COc1cccc(CN2Cc3ccc(-c4ccncc4)cc3C2=O)c1 [Compound 66]
- IC50: 0.023 µM

SMILES: CCOc1cccc([C@H](C(=O)OC)N2Cc3ccc(-c4cn[nH]c4)cc3C2=O)c1 [Compound 73]
- IC50: 1.39 µM

SMILES: COc1cccc(CN2C(=O)c3cc(-c4cn[nH]c4)ccc3C23CCC(C(=O)O)C3)c1 (centres unmarked) [Compound 107, 2′-(3-methoxybenzyl)-3′-oxo-5′-(1H-pyrazol-4-yl)spiro[cyclopentane-1,1′-isoindoline]-3-carboxylic acid]
- IC50: 0.005 µM

SMILES: COc1cccc([C@@H](C)N2Cc3c(cc(-c4cn[nH]c4)cc3-c3ccc(C(F)(F)F)nc3)C2=O)c1 [Compound 145, (R)-2-(1-(3-methoxyphenyl)ethyl)-6-(1H-pyrazol-4-yl)-4-(6-(trifluoromethyl)pyridin-3-yl)isoindolin-1-one]
- IC50: 0.285 µM

SMILES: COc1cccc(CN2C(=O)c3cc(-c4cn[nH]c4)ccc3C23CCC2NC(=O)OC23)c1 (centres unmarked) [Compound 150, 2′-(3-methoxybenzyl)-5′-(1H-pyrazol-4-yl)-3a,4,5,6a-tetrahydrospiro[cyclopenta[d]oxazole-6,1′-isoindoline]-2,3′(3H)-dione]
- IC50: 0.013 µM

Source: US20220009906A1, “ISOINDOLIN-1-ONE DERIVATIVES USEFUL AS GRK2 INHIBITORS” (priority 2020, published 2022)
